Columns and labels:
[1] = test system: ischemia-induced ST segment elevation; assay: Ischemia-induced ST segment elevation in anesthetized rabbits; format: in vivo, rabbit; settings: iv infusion, 0.9 uM concentration
Protocol: This study was undertaken to determine the anti-ischemic effects of compounds of the present disclosure in an in vivo rabbit model.
Female New Zealand rabbits (3.0-4.0 kg) were purchased from Western Oregon Rabbitry. Animals were housed on a 12-h light and dark cycle and received standard laboratory chow and water. All experiments were performed in accordance with the Guide for the Care and Use of Laboratory Animals published by The National Research Council and with the experimental protocol approved by the Institutional Animal Care Committee of Gilead Sciences, Inc.
Rabbits were anesthetized with ketamine (35 mg/kg) and xylazine (5 mg/kg) intramuscular injection (im). A tracheotomy was performed and the trachea was intubated with an endotracheal tube. […]
Reference electrodes were placed in the open incision of the neck. The body temperature of the animal was monitored via a rectal thermometer and maintained at 37-40° C. by adjusting the surface temperature of the surgical table. […] The ischemic area was visualized by perfusing the heart with 1% Evans blue in saline and calculated as a percentage of total ventricular weight. […]

hNaV1.3 (SCN3A) = assay: Voltage-dependent inhibition of the NaV1.3 sodium channel; format: cell-based, human; settings: voltage-dependent block at 1 uM
Protocol: HEK-293 cells stably expressing wild-type (WT) hNaV1.3 (SCN3A NCBI # NP_001075, SCN1B NCBI # NM_001037.4, SCN2B NCBI # NM_004588.2) were used to record INa. Cells are maintained with standard tissue culture procedures and stable channel expression is maintained with 800 ug/mL G418 and 3 ug/mL Puromycin in the culture medium. Unless otherwise noted, all reagents are purchased from Sigma-Aldrich (St Louis, Mo., U.S.A.).
Assays measuring Voltage-Dependent Block (VDB) of NaV1.3 are performed on an automated electrophysiology platform, QPatch 16X or QPatch HT (Sophion Bioscience, Copenhagen, Denmark), using the whole cell patch clamp technique to measure currents through the cell membrane. Series resistance compensation is set to 100% and series resistance and whole-cell compensation are performed automatically. Currents stored in the Sophion Bioscience Oracle database (Sophion Bioscience, Copenhagen, Denmark). Analysis is performed using QPatch Assay software and data are compiled in Excel 2010 (Microsoft, Seattle, Wash., U.S.A.).
The internal (pipette) solution consists of (in mM) 105 CsF, 10 NaF, 20 CsCl, 2 EGTA, 10 HEPES, 10 Dextrose with a pH of 7.35 and osmolarity of 300 mOsmol/kg. The external (bath) solution contains in (mM): 80 NaCl, 60 Choline-Cl, 4 KCl, 1.8 CaCl2, 1 MgCl2, 10 dextrose, 10 HEPES, with a pH of 7.35 and osmolarity of 310 mOsmol/kg. Experiments are carried out at 23-25° C.
Compound stocks are routinely made by the Gilead Sample Bank in vials to 10 mM in dimethyl sulfoxide (DMSO). In some cases, when compounds are not soluble in DMSO, they are made in 100% ethanol. […] Cells are allowed to stabilize for 10 min after establishment of the whole-cell configuration before current is measured. […]
Voltage-dependent block of NaV1.3 peak current was measured during a voltage step to 0 mV (20 ms) following a voltage step pre-conditioning steps (−55 mV for 10 sec followed by −120 mV for 10 ms). […] The voltage protocol for VDB was performed every 45 seconds in the absence and presence of compound and percentage inhibition was calculated with respect to the compound free condition.

COc1cc(OC(F)(F)F)ccc1-c1ccc2c(c1)CN(Cc1ncccn1)C(=O)O2 [Example 1, 6-(2-methoxy-4-(trifluoromethoxy)phenyl)-3-(pyrimidin-2-ylmethyl)-3,4-dihydro-2H-benzo[e][1,3]oxazin-2-one]
inhibition in the rabbit ST segment elevation assay [1]: 58%

O=C1Oc2ccc(-c3ccc(OC(F)(F)F)cc3F)cc2CN1Cc1ncccn1 [Example 7, 6-(2-fluoro-4-(trifluoromethoxy)phenyl)-3-(pyrimidin-2-ylmethyl)-3,4-dihydro-2H-benzo[e][1,3]oxazin-2-one]
NaV1.3 VDB % inhibition at 1 uM (hNaV1.3 (SCN3A)): 32%

Cc1cc(OC(F)(F)F)ccc1-c1ccc2c(c1)CN(Cc1ncccn1)C(=O)O2 [Example 8, 6-(2-methyl-4-(trifluoromethoxy)phenyl)-3-(pyrimidin-2-ylmethyl)-3,4-dihydro-2H-benzo[e][1,3]oxazin-2-one]
NaV1.3 VDB % inhibition at 1 uM (hNaV1.3 (SCN3A)): 13.8%

Cc1cc(-c2ccc3c(c2)CN(Cc2ncccn2)C(=O)O3)ccc1OC(F)(F)F [Example 5, 6-(3-methyl-4-(trifluoromethoxy)phenyl)-3-(pyrimidin-2-ylmethyl)-3,4-dihydro-2H-benzo[e][1,3]oxazin-2-one]
NaV1.3 VDB % inhibition at 1 uM (hNaV1.3 (SCN3A)): 31%

Source: patent US9416128B2, “Fused heterocyclic compounds as ion channel modulators” (Gilead Sciences, Inc., priority 2013, dated 2016)
